One compound from ChEMBL document CHEMBL4130471, “Design and synthesis of tranylcypromine derivatives as novel LSD1/HDACs dual inhibitors for cancer treatment” (Eur J Med Chem, 2017) can be followed below.

Assay [1] concerns MGC-803. As to the kind of experiment: Induction of apoptosis in human MGC803 cells assessed as necrotic cells level at 2.5 uM incubated for 24 hrs by Annexin-V-FITC/propidium iodide staining based flow cytometry (reference value: 0.596%). The format is functional.
Assay [2] concerns MGC-803. The experiment in a line: Induction of apoptosis in human MGC803 cells assessed as early apoptotic cells level at 2.5 uM incubated for 24 hrs by Annexin-V-FITC/propidium iodide staining based flow cytometry (reference value: 4.37%). The class given is functional.
For assay [3], the target named is Histone deacetylase (Homo sapiens) (UniProt Q13547+O15379+Q9UBN7+Q92769+Q9UQL6+Q8WUI4+Q9BY41+Q96DB2+P56524+Q9UKV0+Q969S8). The experiment in a line: Inhibition of HDAC in human MGC803 cells assessed as increase in cellular histone H3 acetylation levels incubated for 24 hrs by Western blot. The format is cell-based. (In general: Immunoblotting shows a protein as a band on a membrane.)

In assay [4] the test system is MGC-803. The experiment in a line: Induction of mitochondrial membrane potential loss in human MGC803 cells assessed as FL2 red fluorescence level at 2.5 uM incubated for 48 hrs by JC1 staining based flow cytometry (reference value: 5.47%). The format is functional. For orientation: In flow cytometry, cells or beads pass a laser one at a time.
The subject of assay [5] is MGC-803. As to the kind of experiment: Induction of apoptosis in human MGC803 cells assessed as late apoptotic cells level at 7.5 uM incubated for 48 hrs by Annexin-V-FITC/propidium iodide staining based flow cytometry (reference value: 0.121%). The format is functional.
For assay [6], the system named is MCF7. As to the kind of experiment: cells. The format is functional, cell-based. Particulars: Homo sapiens, MCF7, 72 h.
Description: Antiproliferative activity against human MCF7 cells incubated for 72 hrs by MTT assay
Assay [7] deals with T1, Amine oxidase [flavin-containing] B (Homo sapiens, UniProt P27338).
T1 sequence (P27338 whole entry): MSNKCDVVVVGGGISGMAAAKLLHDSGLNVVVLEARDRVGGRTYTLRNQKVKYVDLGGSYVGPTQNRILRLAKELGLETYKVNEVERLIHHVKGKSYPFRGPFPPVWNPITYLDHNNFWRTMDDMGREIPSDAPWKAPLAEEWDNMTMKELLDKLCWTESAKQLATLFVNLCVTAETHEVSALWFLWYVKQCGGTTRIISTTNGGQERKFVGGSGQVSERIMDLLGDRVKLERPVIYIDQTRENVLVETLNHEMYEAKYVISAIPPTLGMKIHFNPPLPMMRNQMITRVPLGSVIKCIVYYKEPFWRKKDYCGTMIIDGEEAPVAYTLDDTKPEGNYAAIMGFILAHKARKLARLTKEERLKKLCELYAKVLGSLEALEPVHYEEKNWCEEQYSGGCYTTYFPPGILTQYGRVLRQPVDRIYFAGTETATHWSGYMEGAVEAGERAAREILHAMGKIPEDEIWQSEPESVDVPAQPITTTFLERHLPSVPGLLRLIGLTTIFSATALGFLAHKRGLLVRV
Description: Inhibition of MAOB (unknown origin) using beetle luciferin as substrate by MAO-Glo assay

For assay [8], the target named is Histone deacetylase 2 (Homo sapiens, UniProt Q92769).
Sequence of Histone deacetylase 2 (Q92769 whole entry): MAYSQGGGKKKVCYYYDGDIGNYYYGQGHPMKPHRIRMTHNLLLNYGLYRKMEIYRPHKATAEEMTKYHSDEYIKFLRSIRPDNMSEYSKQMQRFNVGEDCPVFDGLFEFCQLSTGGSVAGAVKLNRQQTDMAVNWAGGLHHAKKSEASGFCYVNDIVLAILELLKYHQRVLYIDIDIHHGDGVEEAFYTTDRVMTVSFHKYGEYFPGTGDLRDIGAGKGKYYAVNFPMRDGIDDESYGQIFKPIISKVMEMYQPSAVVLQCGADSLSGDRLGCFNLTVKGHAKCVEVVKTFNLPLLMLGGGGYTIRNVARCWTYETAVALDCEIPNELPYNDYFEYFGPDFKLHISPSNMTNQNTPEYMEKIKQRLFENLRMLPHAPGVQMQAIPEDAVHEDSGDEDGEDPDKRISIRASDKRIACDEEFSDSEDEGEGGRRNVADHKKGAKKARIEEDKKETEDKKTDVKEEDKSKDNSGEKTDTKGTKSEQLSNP
Description: Inhibition of C-terminal His-tagged full length human HDAC2 expressed in baculovirus expression system using Ac-peptide substrate incubated for 15 mins by fluorescence based assay
Assay [9] addresses T2, Amine oxidase [flavin-containing] A (Homo sapiens, UniProt P21397).
T2 sequence (P21397 whole entry): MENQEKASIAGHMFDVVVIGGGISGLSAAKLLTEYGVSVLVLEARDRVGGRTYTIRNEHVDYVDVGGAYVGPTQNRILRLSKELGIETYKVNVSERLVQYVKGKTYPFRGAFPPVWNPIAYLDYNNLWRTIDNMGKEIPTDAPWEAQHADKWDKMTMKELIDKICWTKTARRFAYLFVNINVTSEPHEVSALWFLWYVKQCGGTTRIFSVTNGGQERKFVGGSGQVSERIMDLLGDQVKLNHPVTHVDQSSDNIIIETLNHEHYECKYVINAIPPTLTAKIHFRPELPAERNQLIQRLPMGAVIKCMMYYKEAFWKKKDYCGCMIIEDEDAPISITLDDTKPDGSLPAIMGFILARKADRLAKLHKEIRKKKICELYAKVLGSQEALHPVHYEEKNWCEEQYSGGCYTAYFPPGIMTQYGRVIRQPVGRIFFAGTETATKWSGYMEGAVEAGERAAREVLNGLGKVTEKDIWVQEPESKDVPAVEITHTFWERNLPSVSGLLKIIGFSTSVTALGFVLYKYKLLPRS
Description: Inhibition of MAOA (unknown origin) using beetle luciferin as substrate by MAO-Glo assay

The target of assay [10] is Lysine-specific histone demethylase 1A (Homo sapiens, UniProt O60341). The experiment in a line: Inhibition of LSD1 in human MGC803 cells assessed as increase in cellular H3K4me3 levels at 1 uM incubated for 24 hrs by Western blot. The format is cell-based.
Assay [11] relates to MGC-803. As to the kind of experiment: Induction of mitochondrial membrane potential loss in human MGC803 cells incubated for 48 hrs by JC1 staining based flow cytometry. The class given is functional, cell-based.
Assay [12] relates to MGC-803. As to the kind of experiment: Induction of apoptosis in human MGC803 cells assessed as late apoptotic cells level at 5 uM incubated for 48 hrs by Annexin-V-FITC/propidium iodide staining based flow cytometry (reference value: 0.121%). The class given is functional.

The source made the active and inactive calls. The calls are words filed in the database; no cut-off is given here.

For the compound `O=C(CCCCCCNC(=O)c1ccc(CNC2(c3ccccc3)CC2)cc1)NO`, the Activity is 1.22% in assay [1]; 22.5% in assay [2]; 46.6% in assay [4]; 49.6% in [5]; “Dose-dependent effect” in assay [11]; 43.9% in assay [12]. For the same compound, the inhibition entry in assay [3] was “Dose-dependent effect”. For the same compound, the IC50 (commonly the concentration at which inhibition is half-maximal) in assay [6] amounted to 4.28 µM; in assay [7] it was 87.1 µM; in assay [8] it was 0.023 µM; in assay [9] it was 21.1 µM. For the same compound, the inhibition entry in [10] was “inactive”.
